Test results: patent publication US11180521B2, “Nicotinamide riboside analogs, pharmaceutical compositions, and uses thereof” (Metro International Biotech, LLC, priority 2018, dated 2021)

Columns and labels:
Assay type in all cases: in vivo, C57BL/6 mice
[1] = PK/PD duration of effect study, single oral gavage dose: administered compound level in skeletal muscle; design: key to transcyclohexyl NaR dimer concentration: BQL: Below quantitation limit; BDL: Below Detection Limit, No Peak Detected; details: pre-dose BQL
Method: (§1) Transcyclohexyl nicotinic acid riboside (NaR) dimer was administered by oral gavage at a dose of 500 mg/kg in an Ethanol/PBS, pH 7.4/PEG400 (10/30/60) vehicle. The dosing volume was 5 ml/kg at a solution concentration of 100 mg/ml. The solution concentration was increased for the presence of counterion.
(§2) Animals were fasted for 16 hours prior to dosing. Samples were collected pre-dose and at 0.25, 0.75, 1, 2, 4, 8 and 24 hr post dosing. Following euthanasia, the entire liver and skeletal muscle (gastrocnemius with attached soleus muscle, bilateral) were rinsed with 0.9% saline, and frozen for later bioanalysis. Samples were maintained frozen at −80° C. until bioanalysis.
(§3) Samples were thawed, homogenized, extracted and analyzed by LC-MS on the same day. The LC used was a Shimadzu Nexera UPLC, and the mass spectrometer was an AB Sciex Qtrap 6500. Specimens were analyzed for levels of administered compound (transcyclohexyl NaR dimer), as well as for levels of NAD, NAAD, NAM, and NMN by the method of standard addition, to detect alterations from the basal levels of the analytes. Calibration standards for quantifying administered compound were prepared using transcyclohexyl NaR dimer in mouse liver or skeletal muscle homogenates. Corresponding standards for quantifying other metabolites were also prepared. Data are calculated as the mean concentration from n=6 animals per time point.

[2] = tested on: NAD, NAAD, NAM, and NMN levels in skeletal muscle; test: PK/PD duration of effect study, single oral gavage dose: NAD, NAAD, NAM and NMN levels in skeletal muscle; design: key to NAAD concentration: BQL: Below quantitation limit; BDL: Below Detection Limit, No Peak Detected; details: for NAAD concentration: pre-dose BDL
Method: as §1, §2, §3

[3] = tested on: NAD, NAAD, NAM, and NMN levels in liver; test: PK/PD duration of effect study, single oral gavage dose: NAD, NAAD, NAM and NMN levels in liver; details: 0.25 hr after 500 mg/kg oral gavage
Method: as §1, §2, §3

[4] = 0.25 hr after 500 mg/kg oral gavage
[5] = 1 hr after 500 mg/kg oral gavage
[6] = 2 hr after 500 mg/kg oral gavage
[7] = 24 hr after 500 mg/kg oral gavage

CC(=O)OC[C@H]1O[C@@H]([n+]2cccc(C(=O)O[C@H]3CC[C@H](OC(=O)c4ccc[n+]([C@@H]5O[C@H](COC(C)=O)[C@@H](OC(C)=O)[C@H]5OC(C)=O)c4)CC3)c2)[C@H](OC(C)=O)[C@@H]1OC(C)=O [transcyclohexyl NaR dimer, Transcyclohexyl nicotinic acid riboside (NaR) dimer]
transcyclohexyl NaR dimer concentration [1, 4]: 0.0142 mmol/kg
transcyclohexyl NaR dimer concentration [1, 5]: 0.00109 mmol/kg
transcyclohexyl NaR dimer concentration [1, 6]: BQL
transcyclohexyl NaR dimer concentration ([1]; 4 hr after 500 mg/kg oral gavage): BQL
transcyclohexyl NaR dimer concentration ([1]; 8 hr after 500 mg/kg oral gavage): BQL
transcyclohexyl NaR dimer concentration [1, 7]: BQL
concentration at 0.25 h ([1]; C57BL/6, mouse, 0.25 hr after 500 mg/kg oral gavage, read-out: transcyclohexyl NaR dimer concentration): 12000 ng/g
concentration at 1 h ([1]; C57BL/6, mouse, 1 hr after 500 mg/kg oral gavage, read-out: transcyclohexyl NaR dimer concentration): 921 ng/g
NMN concentration ([2]; 0.25 hr after 500 mg/kg oral gavage, pre-dose 0.00225): 0.002 mmol/kg
NAM concentration ([2]; 0.25 hr after 500 mg/kg oral gavage, pre-dose 0.159): 0.161 mmol/kg
NMN concentration ([2]; 0.25 hr after 500 mg/kg oral gavage, pre-dose 0.752): 0.667 µg/g
NAD concentration ([2]; 0.25 hr after 500 mg/kg oral gavage, pre-dose 0.781): 0.826 mmol/kg
NAM concentration ([2]; 0.25 hr after 500 mg/kg oral gavage, pre-dose 19.4): 19.7 µg/g
NAD concentration ([2]; 0.25 hr after 500 mg/kg oral gavage, pre-dose 518): 548 µg/g
NAAD concentration [2, 4]: BDL
NMN concentration ([2]; 0.75 hr after 500 mg/kg oral gavage, pre-dose 0.00225): 0.00196 mmol/kg
NAM concentration ([2]; 0.75 hr after 500 mg/kg oral gavage, pre-dose 0.159): 0.208 mmol/kg
NMN concentration ([2]; 0.75 hr after 500 mg/kg oral gavage, pre-dose 0.752): 0.656 µg/g
NAD concentration ([2]; 0.75 hr after 500 mg/kg oral gavage, pre-dose 0.781): 0.861 mmol/kg
NAM concentration ([2]; 0.75 hr after 500 mg/kg oral gavage, pre-dose 19.4): 25.3 µg/g
NAD concentration ([2]; 0.75 hr after 500 mg/kg oral gavage, pre-dose 518): 571 µg/g
NAAD concentration ([2]; 0.75 hr after 500 mg/kg oral gavage): BDL
NMN concentration ([2]; 1 hr after 500 mg/kg oral gavage, pre-dose 0.00225): 0.00173 mmol/kg
NAM concentration ([2]; 1 hr after 500 mg/kg oral gavage, pre-dose 0.159): 0.184 mmol/kg
NMN concentration ([2]; 1 hr after 500 mg/kg oral gavage, pre-dose 0.752): 0.579 µg/g
NAD concentration ([2]; 1 hr after 500 mg/kg oral gavage, pre-dose 0.781): 0.720 mmol/kg
NAM concentration ([2]; 1 hr after 500 mg/kg oral gavage, pre-dose 19.4): 22.4 µg/g
NAD concentration ([2]; 1 hr after 500 mg/kg oral gavage, pre-dose 518): 478 µg/g
NAAD concentration [2, 5]: BDL
NMN concentration ([2]; 2 hr after 500 mg/kg oral gavage, pre-dose 0.00225): 0.00191 mmol/kg
NAM concentration ([2]; 2 hr after 500 mg/kg oral gavage, pre-dose 0.159): 0.0918 mmol/kg
NMN concentration ([2]; 2 hr after 500 mg/kg oral gavage, pre-dose 0.752): 0.639 µg/g
NAD concentration ([2]; 2 hr after 500 mg/kg oral gavage, pre-dose 0.781): 0.875 mmol/kg
NAM concentration ([2]; 2 hr after 500 mg/kg oral gavage, pre-dose 19.4): 11.2 µg/g
NAD concentration ([2]; 2 hr after 500 mg/kg oral gavage, pre-dose 518): 581 µg/g
NAAD concentration [2, 6]: BDL
NMN concentration ([2]; 4 hr after 500 mg/kg oral gavage, pre-dose 0.00225): 0.00222 mmol/kg
NAM concentration ([2]; 4 hr after 500 mg/kg oral gavage, pre-dose 0.159): 0.166 mmol/kg
NMN concentration ([2]; 4 hr after 500 mg/kg oral gavage, pre-dose 0.752): 0.740 µg/g
NAD concentration ([2]; 4 hr after 500 mg/kg oral gavage, pre-dose 0.781): 0.726 mmol/kg
NAM concentration ([2]; 4 hr after 500 mg/kg oral gavage, pre-dose 19.4): 20.2 µg/g
NAD concentration ([2]; 4 hr after 500 mg/kg oral gavage, pre-dose 518): 482 µg/g
NMN concentration ([2]; 8 hr after 500 mg/kg oral gavage, pre-dose 0.00225): 0.00245 mmol/kg
NAM concentration ([2]; 8 hr after 500 mg/kg oral gavage, pre-dose 0.159): 0.170 mmol/kg
NMN concentration ([2]; 8 hr after 500 mg/kg oral gavage, pre-dose 0.752): 0.818 µg/g
NAD concentration ([2]; 8 hr after 500 mg/kg oral gavage, pre-dose 0.781): 0.648 mmol/kg
NAM concentration ([2]; 8 hr after 500 mg/kg oral gavage, pre-dose 19.4): 20.8 µg/g
NAD concentration ([2]; 8 hr after 500 mg/kg oral gavage, pre-dose 518): 430 µg/g
NMN concentration ([2]; 24 hr after 500 mg/kg oral gavage, pre-dose 0.00225): 0.00199 mmol/kg
NAM concentration ([2]; 24 hr after 500 mg/kg oral gavage, pre-dose 0.159): 0.155 mmol/kg
NMN concentration ([2]; 24 hr after 500 mg/kg oral gavage, pre-dose 0.752): 0.665 µg/g
NAD concentration ([2]; 24 hr after 500 mg/kg oral gavage, pre-dose 0.781): 0.635 mmol/kg
NAM concentration ([2]; 24 hr after 500 mg/kg oral gavage, pre-dose 19.4): 18.9 µg/g
NAD concentration ([2]; 24 hr after 500 mg/kg oral gavage, pre-dose 518): 421 µg/g
NAAD concentration [2, 7]: BDL
NMN concentration ([3]; pre-dose 0.00637): 0.00556 mmol/kg
NAM concentration ([3]; pre-dose 0.430): 0.481 mmol/kg
NAD concentration ([3]; pre-dose 1.08): 0.938 mmol/kg
NMN concentration ([3]; pre-dose 2.13): 1.86 µg/g
